Activity calls are given as the source filed them. No cut-off for these calls is given here.
Columns and labels:
[1] = tested on: K562; assay: Cytotoxicity against human K562 cells after 72 hrs by MTT assay; format: functional, cell-based; details: K562, 72 h
[2] = tested on: HeLa; assay: Ratio of tiazofurin IC50 to compound IC50 for human HeLa cells; format: functional
[3] = tested on: HL-60; assay: Cytotoxicity against human HL60 cells after 72 hrs by MTT assay; format: functional, cell-based; details: HL-60, 72 h
[4] = tested on: Jurkat; assay: Cytotoxicity against human Jurkat cells after 72 hrs by MTT assay; format: functional, cell-based
[5] = tested on: HeLa; assay: Cytotoxicity against human HeLa cells after 72 hrs by MTT assay; format: functional, cell-based
[6] = tested on: MRC5; assay: Cytotoxicity against human MRC5 cells after 72 hrs by MTT assay; format: cell-based; details: MRC5, 72 h
[7] = tested on: K562; assay: Cytotoxicity against human K562 cells after 72 hrs by DET assay; format: functional, cell-based; details: K562, 72 h
[8] = tested on: MCF7; assay: Cytotoxicity against human MCF7 cells; format: functional, cell-based
[9] = tested on: MDA-MB-231; assay: Cytotoxicity against human MDA-MB-231 cells; format: functional, cell-based
[10] = tested on: HT-29; assay: Cytotoxicity against human HT-29 cells; format: functional, cell-based
[11] = tested on: K562; assay: Induction of apoptosis in human K562 cells at IC50 concentration after 24 hrs by AnnexinV staining-based flow cytometric analysis; format: functional, cell-based
[12] = tested on: Raji; assay: Cytotoxicity against human Raji cells after 72 hrs by MTT assay; format: functional, cell-based
[13] = tested on: K562; assay: Induction of apoptosis in human K562 cells assessed as apoptotic cells at IC50 concentration after 72 hrs by AnnexinV staining-based flow cytometric analysis relative to tiazofurin; format: functional
[14] = tested on: K562; assay: Cytotoxicity against human K562 cells after 72 hrs by SRB assay; format: functional, cell-based; details: K562, 72 h
[15] = tested on: K562; assay: Ratio of tiazofurin IC50 to compound IC50 for human K562 cells; format: functional
[16] = tested on: HL-60; assay: Ratio of tiazofurin IC50 to compound IC50 for human HL60 cells; format: functional

| Structure (SMILES) | IC50 [1] | Ratio IC50 [2] | IC50 [3] | IC50 [4] | IC50 [5] | IC50 [6] | IC50 [7] | Activity [8] | Activity [9] | Activity [10] | Activity [11] | IC50 [12] | fold change (FC) [13] | IC50 [14] | Ratio IC50 [15] | IC50 [8] | IC50 [9] | IC50 [10] | Ratio IC50 [16] |
| --- | --- | --- | --- | --- | --- | --- | --- | --- | --- | --- | --- | --- | --- | --- | --- | --- | --- | --- | --- |
| NC(=O)c1csc([C@@H]2O[C@H](CO)[C@H](O)[C@H]2O)n1 | 150 nM | 48 | 130 nM | 530 nM | 80 nM | > 100000 nM | 100 nM | inactive | inactive | inactive | Active | 3110 nM | 7 | 416 nM | – | – | – | – | – |
| C[C@]1(c2nc(C(N)=O)cs2)O[C@H]2O[C@H](CO)[C@H](O)[C@H]2O1 | 20 nM | – | 340 nM | 640 nM | 640 nM | > 100000 nM | – | – | – | – | – | 5610 nM | – | – | 100 | – | – | – | – |
| NC(=O)c1csc([C@@H]2O[C@H](CO)[C@@H](O)[C@H]2O)n1 [TIAZOFURIN] | 2090 nM | – | 190 nM | 40 nM | 3820 nM | 360 nM | – | – | – | – | – | 5280 nM | – | – | – | 260 nM | 260 nM | 260 nM | – |
| C[C@@]1(c2nc(C(N)=O)cs2)O[C@H]2O[C@H](CO)[C@H](O)[C@H]2O1 | 100 nM | 64 | 50 nM | 590 nM | 60 nM | > 100000 nM | – | – | – | – | – | 2640 nM | – | – | – | – | – | – | 4 |

Source: ChEMBL document CHEMBL2157963, “Synthesis and in vitro antitumour screening of 2-(β-D-xylofuranosyl)thiazole-4-carboxamide and two novel tiazofurin analogues with substituted tetrahydrofurodioxol moiety as a sugar mimic” (Bioorg Med Chem Lett, 2012)
